Assay results published in patent US11834453B2, “Substituted pyrimido[5,4-d]pyrimidines as HER2 inhibitors” (Array BioPharma Inc., priority 2020, dated 2023).

Tests used:
[1] = target: EGFR (Homo sapiens (Human), UniProt P00533); assay: ErbB enzyme assay (CisBio HTRF KinEASE-TK), Assay 3; assay type: biochemical
Procedure, shortened: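 Using a time-resolved FRET read-out, tyrosine phosphorylation of 250 nM biotin substrate at 1 mM ATP (pH 7.4, 10 mM MgCl2, 2% DMSO, 22 °C, 30 min) was quantified against DMSO and pre-quenched controls; IC50 taken at 50% of control.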

[2] = target: ErbB2 WT (Homo sapiens (Human), UniProt P04626); assay: ErbB enzyme assay (CisBio HTRF KinEASE-TK), Assay 2; assay type: biochemical
Sequence of ErbB2 WT (P04626 23-1255): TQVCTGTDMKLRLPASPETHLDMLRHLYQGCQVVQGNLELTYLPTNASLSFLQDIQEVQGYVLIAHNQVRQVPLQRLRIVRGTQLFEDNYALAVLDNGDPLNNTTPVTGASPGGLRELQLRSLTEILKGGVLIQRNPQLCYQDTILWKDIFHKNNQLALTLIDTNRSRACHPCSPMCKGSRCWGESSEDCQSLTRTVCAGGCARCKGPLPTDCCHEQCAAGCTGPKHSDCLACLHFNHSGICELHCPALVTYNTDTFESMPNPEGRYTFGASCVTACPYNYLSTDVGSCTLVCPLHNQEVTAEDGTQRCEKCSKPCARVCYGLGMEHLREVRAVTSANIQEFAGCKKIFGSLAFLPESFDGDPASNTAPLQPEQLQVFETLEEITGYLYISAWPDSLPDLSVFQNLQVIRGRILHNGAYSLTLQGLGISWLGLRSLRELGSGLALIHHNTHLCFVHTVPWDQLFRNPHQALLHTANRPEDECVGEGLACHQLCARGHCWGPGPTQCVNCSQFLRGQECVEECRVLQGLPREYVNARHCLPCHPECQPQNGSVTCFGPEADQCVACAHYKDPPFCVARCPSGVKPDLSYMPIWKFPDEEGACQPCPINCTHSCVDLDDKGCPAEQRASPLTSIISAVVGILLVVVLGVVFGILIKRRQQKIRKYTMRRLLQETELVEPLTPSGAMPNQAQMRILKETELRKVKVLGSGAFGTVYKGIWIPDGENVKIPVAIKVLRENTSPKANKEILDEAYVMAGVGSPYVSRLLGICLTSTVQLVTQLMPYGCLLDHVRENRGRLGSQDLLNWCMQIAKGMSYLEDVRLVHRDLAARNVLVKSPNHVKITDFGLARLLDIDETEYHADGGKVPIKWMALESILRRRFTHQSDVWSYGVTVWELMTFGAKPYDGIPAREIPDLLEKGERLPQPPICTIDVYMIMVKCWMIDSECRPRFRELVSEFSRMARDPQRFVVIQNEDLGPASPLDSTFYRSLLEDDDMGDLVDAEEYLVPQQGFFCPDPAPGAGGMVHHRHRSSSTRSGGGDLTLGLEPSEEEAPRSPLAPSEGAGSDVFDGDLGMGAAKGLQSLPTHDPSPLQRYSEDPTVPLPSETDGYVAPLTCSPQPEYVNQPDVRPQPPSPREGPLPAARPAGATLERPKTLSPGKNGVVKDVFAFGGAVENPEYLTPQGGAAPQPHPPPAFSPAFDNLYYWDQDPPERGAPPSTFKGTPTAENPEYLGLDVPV
Procedure, shortened: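 Readout is HTRF KinEASE-TK, using Sa-XL665 and cryptate antibody for 1 h at 22 °C, as percent of control between DMSO-only (100) and pre-quenched (0) reactions. The kinase reaction runs 30 min at 22 °C with 1 mM ATP and 250 nM biotinylated TK substrate, in HEPES pH 7.4 with MgCl2 and 2% DMSO.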

[3] = target: T1, EGFR wild type (EGFR WT) (Homo sapiens (Human), UniProt P00533); assay: Cellular phosphorylation assay, EGF-stimulated EGFR phosphorylation (Y1068) in engineered NIH 3T3 cells, Odyssey imaging, Assay 5 (footnote 1); assay type: cell-based; details: values marked with footnote 1
T1 sequence (P00533 25-1210): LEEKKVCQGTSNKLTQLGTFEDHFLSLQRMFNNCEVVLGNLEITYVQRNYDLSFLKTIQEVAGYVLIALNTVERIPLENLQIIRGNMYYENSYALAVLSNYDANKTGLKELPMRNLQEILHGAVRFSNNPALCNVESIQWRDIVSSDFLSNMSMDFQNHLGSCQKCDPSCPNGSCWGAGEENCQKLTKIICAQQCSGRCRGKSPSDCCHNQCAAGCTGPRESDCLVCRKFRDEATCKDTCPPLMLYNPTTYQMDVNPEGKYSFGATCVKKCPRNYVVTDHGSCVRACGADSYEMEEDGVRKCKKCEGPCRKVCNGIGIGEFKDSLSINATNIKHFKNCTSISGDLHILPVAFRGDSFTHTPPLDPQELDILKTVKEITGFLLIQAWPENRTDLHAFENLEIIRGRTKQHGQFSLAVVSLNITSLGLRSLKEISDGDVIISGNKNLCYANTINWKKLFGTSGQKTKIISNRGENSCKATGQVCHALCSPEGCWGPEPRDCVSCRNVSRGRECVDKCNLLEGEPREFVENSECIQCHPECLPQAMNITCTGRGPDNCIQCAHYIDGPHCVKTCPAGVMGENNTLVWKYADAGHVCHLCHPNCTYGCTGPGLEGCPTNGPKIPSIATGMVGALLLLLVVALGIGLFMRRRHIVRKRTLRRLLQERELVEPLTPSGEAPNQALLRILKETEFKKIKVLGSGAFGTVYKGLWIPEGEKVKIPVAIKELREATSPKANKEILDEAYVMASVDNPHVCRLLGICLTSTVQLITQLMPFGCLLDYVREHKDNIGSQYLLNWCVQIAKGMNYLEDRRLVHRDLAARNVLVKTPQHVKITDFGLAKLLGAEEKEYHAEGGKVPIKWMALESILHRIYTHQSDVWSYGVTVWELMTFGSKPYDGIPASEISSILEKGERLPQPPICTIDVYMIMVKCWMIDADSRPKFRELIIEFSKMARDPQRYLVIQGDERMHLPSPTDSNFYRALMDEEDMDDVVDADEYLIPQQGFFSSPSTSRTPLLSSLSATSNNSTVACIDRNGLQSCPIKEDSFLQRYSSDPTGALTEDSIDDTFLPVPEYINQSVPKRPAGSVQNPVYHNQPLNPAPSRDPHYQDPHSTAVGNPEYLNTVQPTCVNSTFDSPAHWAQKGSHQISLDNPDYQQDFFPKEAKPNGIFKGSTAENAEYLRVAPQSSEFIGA
Description: NIH 3T3 cells were engineered to express ErbB2 with Exon 20 YVMA insertion (HER2-YVMA (SEQ ID NO: 2); Assay 4) or EGFR wild type (EGFR WT; Assay 5, footnote 1) with constructs obtained from GenScript and grown in DMEM supplemented with 10% fetal bovine serum and 15 μg/ml blasticidin. Cells were plated in 96-well plates at 40,000 or 45,000 cells/well for HER2-YVMA (SEQ ID NO: 2) and EGFR WT assays, respectively, and allowed to attach overnight at 37° C./5% CO2. Serially diluted compounds were added to the plates for 1 hour at 37° C./5% CO2. EGFR WT cells were stimulated with 100 ng/ml rEGF for an additional 10 minutes at 37° C./5% CO2. After compound incubation, medium was removed from the cells, which were then fixed in 3.7% formaldehyde in PBS at room temperature for 20 minutes. Following a wash with PBS, cells were permeabilized with 100% methanol at room temperature for 10 minutes. Cells were then washed with PBS/0.05% Tween-20 and blocked with Odyssey blocking buffer (LI-COR Biosciences) for at least 1 hour at room temperature. Antibodies to phosphorylated ErbB2 (Y1196, Cell Signaling #6942) or phosphorylated EGFR (Y1068, Cell Signaling #3777) and GAPDH (Millipore #MAB374) were added to the cells in blocking buffer containing 0.05% azide and incubated overnight at 4° C. After washing with PBS/0.05° i° Tween-20, the cells were incubated with fluorescently labeled secondary anti-rabbit antibody (LiCOR, IRDye 800CW #926-32211) and anti-mouse antibody (Molecular Probes, Alexa Fluor 680 #A21058) for 1 hour at room temperature in the dark. Cells were then washed and analyzed for fluorescence at both wavelengths using the Odyssey Infrared Imaging System (LI-COR Biosciences). Phosphorylated ErbB2 and EGFR signal was normalized to GAPDH signal to generate curves and calculate IC50 values.

[4] = target: ErbB2 insYVMA (HER2-YVMA, SEQ ID NO: 2) (Homo sapiens, UniProt P04626, INS775YVMA/P1170A); assay: biochemical; details: ErbB2 insYVMA enzyme assay; read-out: Assay 1 IC50
[5] = target: ErbB2 with Exon 20 YVMA insertion (HER2-YVMA) (Homo sapiens (Human), UniProt P04626, INS775YVMA); assay: Cellular phosphorylation assay, constitutive ErbB2 phosphorylation (Y1196) in engineered NIH 3T3 cells, Assay 4; assay type: cell-based
Sequence of ErbB2 with Exon 20 YVMA insertion (HER2-YVMA) (P04626 other isoform, or with tags, fused parts or gaps ins YVMA behind 775): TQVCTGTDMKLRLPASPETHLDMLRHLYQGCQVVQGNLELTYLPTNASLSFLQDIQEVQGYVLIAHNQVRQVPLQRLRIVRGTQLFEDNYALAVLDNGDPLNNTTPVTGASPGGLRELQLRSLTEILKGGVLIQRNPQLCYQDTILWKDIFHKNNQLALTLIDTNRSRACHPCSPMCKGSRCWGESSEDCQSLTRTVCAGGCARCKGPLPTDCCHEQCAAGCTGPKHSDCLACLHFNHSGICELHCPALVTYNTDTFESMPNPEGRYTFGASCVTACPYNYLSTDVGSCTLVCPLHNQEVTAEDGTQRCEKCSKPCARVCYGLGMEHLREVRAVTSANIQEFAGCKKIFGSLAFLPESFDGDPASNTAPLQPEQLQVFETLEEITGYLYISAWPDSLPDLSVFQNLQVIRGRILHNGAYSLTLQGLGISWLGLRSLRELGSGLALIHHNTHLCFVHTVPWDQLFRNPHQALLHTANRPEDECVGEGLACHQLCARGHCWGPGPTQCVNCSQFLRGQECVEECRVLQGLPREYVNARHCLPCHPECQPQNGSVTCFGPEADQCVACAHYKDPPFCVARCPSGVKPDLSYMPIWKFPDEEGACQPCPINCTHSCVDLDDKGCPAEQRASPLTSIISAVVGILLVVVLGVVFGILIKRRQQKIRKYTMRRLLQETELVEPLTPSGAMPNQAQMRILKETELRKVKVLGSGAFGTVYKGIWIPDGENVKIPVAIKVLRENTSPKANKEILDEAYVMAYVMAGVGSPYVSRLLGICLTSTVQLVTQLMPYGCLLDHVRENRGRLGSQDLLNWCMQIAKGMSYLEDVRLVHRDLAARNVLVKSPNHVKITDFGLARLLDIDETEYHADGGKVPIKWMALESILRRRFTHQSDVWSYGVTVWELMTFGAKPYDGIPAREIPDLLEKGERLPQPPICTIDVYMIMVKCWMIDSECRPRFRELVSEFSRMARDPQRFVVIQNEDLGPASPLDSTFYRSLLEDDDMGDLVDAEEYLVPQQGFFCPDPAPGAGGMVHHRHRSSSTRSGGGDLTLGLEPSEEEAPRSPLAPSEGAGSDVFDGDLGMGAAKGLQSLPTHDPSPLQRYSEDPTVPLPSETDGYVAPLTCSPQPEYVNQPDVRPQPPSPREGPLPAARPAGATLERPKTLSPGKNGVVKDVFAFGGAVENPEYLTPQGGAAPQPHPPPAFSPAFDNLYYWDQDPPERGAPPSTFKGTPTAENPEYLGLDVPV
Procedure, shortened: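 In-cell Western in NIH 3T3 cells carrying ErbB2 exon 20 YVMA insertion, with no ligand stimulation. One hour compound exposure at 37 °C before fixation and anti-pY1196 plus GAPDH staining with dual-wavelength fluorescence. IC50 derived after GAPDH normalization.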

[6] = target: T2, MDR1 (P-gp) (Homo sapiens (Human), UniProt P08183); assay: MDR1 transfected LLC-PK1 permeability/efflux, Assay 6; details: pig, LLC-PK1, Assay 6 Pe Ratio, efflux ratio Papp(B-A)/Papp(A-B), MDR1 transfected LLC-PK1
Description: (§1) Both MDR1 transfected LLC-PK1 (Assay 6) and MDR1 transfected MDCKII canine Mdr1 knockout cells (Assay 7) were cultured and plated according to manufacturer's recommendations with the exception that the passage media for the MDR1 transfected LLC-PK1 cell line contained only 2% fetal bovine serum so as to extend passage time out to seven days.
(§2) Both positive and negative controls were used to assess functionality of P-gp or BCRP efflux in the assays. Stock solutions for assay controls and the test article were prepared in DMSO for final test concentration of 1 μM. Final organic concentration in the assay was 1%. All dosing solutions contained 10 μM lucifer yellow to monitor MDCKII cell monolayer integrity.
(§3) For the apical to basolateral determination (A to B), 75 μL of the test article in transport buffer were added to the apical side of the individual transwells and 250 μL of basolateral media, without compound or lucifer yellow, were added to each well. For the basolateral to apical determination (B to A), 250 μL of test article in transport buffer were added to each well and 75 μL transport buffer, without compound or lucifer yellow, were added to each transwell. All tests were performed in triplicate, and each compound was tested for both apical to basolateral and basolateral to apical transport. The plates were incubated for 2 hours on a Lab-Line Instruments Titer Orbital Shaker (VWR, West Chester, PA) at 50 rpm and 37° C. with 5% CO2. All culture plates were removed from the incubator, 50 μL of media were removed from the apical and basolateral portion of each well, and added to 150 μL of 1 μM labetalol in 2:1 acetonitrile (ACN): H2O, v/v.
(§4) The plates were read using a Molecular Devices (Sunnyvale, CA) Gemini Fluorometer to evaluate the lucifer yellow concentrations at excitation/emission wavelengths of 425/535 nm. These values were accepted when found to be below 2% for apical to basolateral and 5% basolateral to apical flux across the MDR1-transfected LLC-PK1 or BCRP-transfected MDCKII cell monolayers. The plates were sealed, and the contents of each well analyzed by LC MS/MS. The compound concentrations were determined from the ratio of the peak areas of the compound to the internal standard (labetalol) in comparison to the dosing solution.
(§5) A MDS Sciex API 4000 (Applied Biosystems, Foster City, CA) mass spectrometer was used for detection of the analytes in the ion spray positive mode. Analyte responses were measured by multiple reaction monitoring (“MRM”) of transitions unique to each compound (the protonated precursor ion and selected product ions for each test article and m/z 329 to m/z 162 for labetalol, the internal standard.
(§6) The total run time, including re-equilibration, for a single injection was 1.2 minutes. […] The total run time, including re-equilibration, for a single injection was 0.61 minutes.
(§7) An efflux ratio is calculated from the mean apical to basolateral (A-B) Papp data and basolateral to apical (B-A) Papp data: Efflux ratio=Papp(B−A)/Papp(A−B)

[7] = target: T2, MDR1 (P-gp); assay: MDR1 transfected MDCKII canine Mdr1 knockout permeability/efflux, Assay 7; details: dog, MDCK-MDR1
Description: as §1, §2, §3, §4, §5, §6, §7

[8] = target: BCRP (Homo sapiens (Human), UniProt Q9UNQ0); assay: BCRP transfected MDCKII canine Mdr1 knockout permeability/efflux, Assay 9; details: dog
Sequence of BCRP (Q9UNQ0 whole entry): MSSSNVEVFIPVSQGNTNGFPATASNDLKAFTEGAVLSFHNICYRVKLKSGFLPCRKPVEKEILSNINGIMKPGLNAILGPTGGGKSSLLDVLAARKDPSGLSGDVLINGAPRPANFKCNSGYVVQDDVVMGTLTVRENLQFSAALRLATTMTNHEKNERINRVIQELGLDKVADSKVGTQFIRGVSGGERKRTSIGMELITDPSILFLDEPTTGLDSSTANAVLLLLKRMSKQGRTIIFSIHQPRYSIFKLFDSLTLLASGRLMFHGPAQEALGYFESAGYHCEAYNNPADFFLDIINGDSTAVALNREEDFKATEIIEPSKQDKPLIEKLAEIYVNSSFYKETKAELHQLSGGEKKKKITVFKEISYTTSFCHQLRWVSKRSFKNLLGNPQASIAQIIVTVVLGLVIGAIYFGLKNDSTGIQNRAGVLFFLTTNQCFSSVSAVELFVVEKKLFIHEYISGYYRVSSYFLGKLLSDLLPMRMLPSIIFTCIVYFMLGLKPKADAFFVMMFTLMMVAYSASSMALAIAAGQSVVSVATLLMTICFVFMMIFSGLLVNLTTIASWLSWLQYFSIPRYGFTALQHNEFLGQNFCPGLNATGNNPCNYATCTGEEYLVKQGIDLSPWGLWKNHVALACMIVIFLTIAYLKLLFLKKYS
Description: BCRP transfected MDCKII cells (Assay 8) and BCRP transfected MDCKII canine Mdr1 knockout cells (Assay 9) were cultured and plated according to manufacturer's recommendations.
as §2, §3
The plates were read using a Molecular Devices (Sunnyvale, CA) Gemini Fluorometer to evaluate the lucifer yellow concentrations at excitation/emission wavelengths of 425/535 nm. […] The plates were sealed, and the contents of each well analyzed by LC MS/MS. The compound concentrations were determined from the ratio of the peak areas of the compound to the internal standard (labetalol) in comparison to the dosing solution.
as §5, §6, §7

[9] = target: T1, EGFR wild type (EGFR WT); assay: Cellular phosphorylation assay, EGF-stimulated EGFR phosphorylation in engineered NIH 3T3 cells, Phospho-EGFR DuoSet IC ELISA, Assay 5; assay type: cell-based
Procedure, shortened: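 Phospho-EGFR ELISA on lysates of engineered NIH 3T3 EGFR WT cells, IC50 derived from concentration curves. Cells plated at 20,000/well overnight, given compound dilutions 1 h at 37 °C, then rEGF 100 ng/ml for a further 10 min before lysis.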

[10] = Assay 9 Pe Ratio, efflux ratio Papp(B-A)/Papp(A-B), BCRP transfected MDCKII canine Mdr1 knockout

Structure (SMILES) | IC50 [1] | IC50 [2] | IC50 [3] | IC50 [4] | IC50 [5] | efflux ratio at 2 h, 1 μM [6] | efflux ratio at 2 h, 1 μM [7] | efflux ratio at 2 h, 1 μM [8, 10] | IC50 [9] | efflux ratio at 2 h, 1 μM [8]
Cc1cc(Nc2ncnc3cnc(S(C)(=O)=O)nc23)ccc1Oc1ccc2c(c1)ncn2C [Example 2, N-(3-methyl-4-((1-methyl-1H-benzo[d]imidazol-5-yl)oxy)phenyl)-6-(methylsulfonyl)pyrimido[5,4-d]pyrimidin-4-amine] | 4640 nM | 14.9 nM | 5000 nM | 7.9 nM | 4750 nM | – | – | – | – | –
COc1ncc2ncnc(Nc3ccc(Oc4ccc5csnc5c4)c(C)c3)c2n1 [Example 7, N-(4-(benzo[c]isothiazol-6-yloxy)-3-methylphenyl)-6-methoxypyrimido[5,4-d]pyrimidin-4-amine 2,2,2-trifluoroacetate] | 2010 nM | 56.8 nM | 5000 nM | 18.5 nM | 146 nM | 1 | 1.3 | – | – | –
CSc1ncc2ncnc(Nc3ccc(Oc4ccc5conc5c4)c(C)c3)c2n1 [Example 10, N-(4-(benzo[c]isoxazol-6-yloxy)-3-methylphenyl)-6-(methylthio)pyrimido[5,4-d]pyrimidin-4-amine] | ≥ 10000 nM | 144 nM | 5000 nM | 49 nM | 671 nM | – | – | – | – | –
CSc1ncc2ncnc(Nc3ccc(Oc4ccc5csnc5c4)c(C)c3)c2n1 [Example 11, N-(4-(benzo[c]isothiazol-6-yloxy)-3-methylphenyl)-6-(methylthio)pyrimido[5,4-d]pyrimidin-4-amine 2,2,2-trifluoroacetate] | 925 nM | 97.4 nM | 5000 nM | 54.4 nM | 95.1 nM | 0.7 | 0.7 | – | – | –
Cc1cc(Nc2ncnc3cnc(N(C)C)nc23)ccc1Oc1ccc2c(c1)ncn2C [Example 3, N2,N2-dimethyl-N8-(3-methyl-4-((1-methyl-1H-benzo[d]imidazol-5-yl)oxy)phenyl)pyrimido[5,4-d]pyrimidine-2,8-diamine 2,2,2-trifluoroacetate] | 8250 nM | 52.4 nM | 5000 nM | 12.5 nM | 42.9 nM | 1 | 1 | – | – | –
Cc1cc(Nc2ncnc3cnc(S(C)(=O)=O)nc23)ccc1Oc1ccc2c(C)onc2c1 [Example 5, N-(3-methyl-4-((3-methylbenzo[c]isoxazol-6-yl)oxy)phenyl)-6-(methylsulfonyl)pyrimido[5,4-d]pyrimidin-4-amine] | 4150 nM | 10.9 nM | 5000 nM | 9.8 nM | 4450 nM | – | – | – | – | –
COc1ncc2ncnc(Nc3ccc(Oc4ccc5c(c4)ncn5C)c(C)c3)c2n1 [Example 8, 6-methoxy-N-(3-methyl-4-((1-methyl-1H-benzo[d]imidazol-5-yl)oxy)phenyl)pyrimido[5,4-d]pyrimidin-4-amine 2,2,2-trifluoroacetate] | ≥ 10000 nM | 69.7 nM | 5000 nM | 22.7 nM | 159 nM | 0.9 | 1 | – | – | –
Cc1cc(Nc2ncnc3cnc(N4CCOCC4)nc23)ccc1Oc1ccc2c(c1)ncn2C [Example 9, N-(3-methyl-4-((1-methyl-1H-benzo[d]imidazol-5-yl)oxy)phenyl)-6-morpholinopyrimido[5,4-d]pyrimidin-4-amine 2,2,2-trifluoroacetate] | ≥ 10000 nM | 64 nM | 5000 nM | 13.6 nM | 4.9 nM | 0.8 | 1.2 | – | – | –
CSc1ncc2ncnc(Nc3ccc(Oc4ccc5c(C)onc5c4)c(C)c3)c2n1 [Example 12, N-(3-methyl-4-((3-methylbenzo[c]isoxazol-6-yl)oxy)phenyl)-6-(methylthio)pyrimido[5,4-d]pyrimidin-4-amine] | ≥ 10000 nM | 275 nM | 5000 nM | 64.2 nM | 403 nM | – | – | – | – | –
CSc1ncc2ncnc(Nc3ccc(Oc4ccc5c(c4)ncn5C)c(C)c3)c2n1 [Example 1, N-(3-methyl-4-((1-methyl-1H-benzo[d]imidazol-5-yl)oxy)phenyl)-6-(methylthio)pyrimido[5,4-d]pyrimidin-4-amine] | ≥ 10000 nM | 41.1 nM | 5000 nM | 19.3 nM | 29.2 nM | 1.2 | 1.4 | – | – | –
COc1ncc2ncnc(Nc3ccc(Oc4ccc5c(C)onc5c4)c(C)c3)c2n1 [Example 6, 6-methoxy-N-(3-methyl-4-((3-methylbenzo[c]isoxazol-6-yl)oxy)phenyl)pyrimido[5,4-d]pyrimidin-4-amine] | ≥ 10000 nM | 232 nM | 5000 nM | 24.6 nM | 1450 nM | – | – | – | – | –
CNc1ncc2ncnc(Nc3ccc(Oc4ccc5c(c4)ncn5C)c(C)c3)c2n1 [Example 4, N2-methyl-N8-(3-methyl-4-((1-methyl-1H-benzo[d]imidazol-5-yl)oxy)phenyl)pyrimido[5,4-d]pyrimidine-2,8-diamine] | 4900 nM | 30 nM | 5000 nM | 8.9 nM | 7.2 nM | 0.9 | 1.4 | – | – | –
Cc1cc(Nc2ncnc3cnc(N4CC[C@@H](C#N)C4)nc23)ccc1Oc1ccc2c(c1)ncn2C [Example 184, (R)-1-(8-((3-methyl-4-((1-methyl-1H-benzo[d]imidazol-5-yl)oxy)phenyl)amino)pyrimido[5,4-d]pyrimidin-2-yl)pyrrolidine-3-carbonitrile] | ≥ 10000 nM | 38.1 nM | – | 11.7 nM | 20.2 nM | – | 1.8 | 4.2 | ≥ 5000 nM | –
Cc1cc(Nc2ncnc3cnc(N4CC[C@H](C#N)C4)nc23)ccc1Oc1ccc2c(c1)ncn2C [Example 173, (S)-1-(8-((3-methyl-4-((1-methyl-1H-benzo[d]imidazol-5-yl)oxy)phenyl)amino)pyrimido[5,4-d]pyrimidin-2-yl)pyrrolidine-3-carbonitrile] | ≥ 10000 nM | 50.5 nM | – | 21.8 nM | 22.6 nM | – | 1.2 | 4.3 | ≥ 5000 nM | –
Clc1cc(Nc2ncnc3cnc(N4CCC45COC5)nc23)ccc1Oc1ccn2ncnc2c1 [Example 132, N-(4-([1,2,4]triazolo[1,5-a]pyridin-7-yloxy)-3-chlorophenyl)-6-(6-oxa-1-azaspiro[3.3]heptan-1-yl)pyrimido[5,4-d]pyrimidin-4-amine] | 801 nM | 5.6 nM | – | 5.8 nM | 19.9 nM | – | 1.1 | – | ≥ 5000 nM | 1.8
